15 compounds from ChEMBL document CHEMBL1143562 (J Med Chem, 2005) can be followed below.

The source made the active and inactive calls. No cut-off for these calls is given here.

Assay [1] is described as follows: Inhibition of [3H]leucine uptake into CHO cells by L-amino acid transporters. The assay is classed as functional, cell-based. To be noted: Cricetulus griseus.
A further assay concerns Mus musculus. Description: Percent protection of DBA/2 mice from audiogenically induced tonic seizures at a dose of 30 mg/kg of test compound. Format: functional.
Assay [2] relates to Rattus norvegicus. Description: The ability of 30 mg/kg oral dose of compound to restore punished drinking behavior in rats expressed as percent reference activity (PRA); NA-not active. The assay is classed as functional, organism-based. Further details: dose 30 mg/kg.
Assay [3] can be described thus: Inhibition of [3H]gabapentin binding to pig brain membranes. Further details: species or system Sus scrofa, Membrane.
Assay [4] concerns Rattus norvegicus. Description: The ability of 30 mg/kg oral dose of compound to restore punished drinking behavior in rats expressed as percent reference activity (PRA). Format: functional.
Assay [5] deals with Rattus norvegicus. The assay can be described thus: Inhibition of carrageenan-induced thermal hyperalgesia in rats 1 hr after administration of a 30 mg/kg dose of test compound. Format: functional.
Assay [6] deals with Rattus norvegicus. The assay can be described thus: Inhibition of carrageenan-induced thermal hyperalgesia in rats 1 hr after administration of a 30 mg/kg dose of test compound; NA-not active. The assay is classed as functional, organism-based. On the set-up: dose 30 mg/kg.

In the case of `CC(C)C[C@H](CN)[C@H](C)C(=O)O`, the values for the IC50 in assay [1] and in assay [3] were 117 µM and greater than 10 µM, respectively. In the assay with Mus musculus, this compound gave a Protection of 0%. Besides, in the assay on Rattus norvegicus [2], the “WLC PRA” value was “inactive”.

Consider `CC(C)C[C@H](CN)CC(=O)O` [PREGABALIN], for which, in the assay with Rattus norvegicus [4], the “WLC PRA” value worked out at 100. Further, the CITH with Rattus norvegicus [5] turned out to be 52. Further, half-maximal inhibition in assay [1] (IC50) required 158 µM. Moreover, the Protection with Mus musculus came to 100%.

With `CCCC[C@@H](CC(=O)O)[C@@H](C)N`, the CITH entry in the assay on Rattus norvegicus [6] was “inactive”. For the same compound, the IC50 is greater than 8300 µM in assay [1] and 1.03 µM in assay [3]. Moreover, the Protection in the assay on Mus musculus is 0%. In addition, in the assay with Rattus norvegicus [2], the “WLC PRA” value was “inactive”.

Turning to `CC(C)[C@H](C)[C@H](CN)CC(=O)O`, the CITH result with Rattus norvegicus [6] is “inactive”. The compound also came in with an IC50 in assay [1] of 28 µM. This compound gave a Protection in the assay on Mus musculus of 20%. Also, in the assay with Rattus norvegicus [2], the “WLC PRA” value was “inactive”.

Regarding `CCC(CC)C(CN)CC(=O)O` (stereo not drawn), the CITH entry with Rattus norvegicus [6] was “inactive”. Further, the IC50 in assay [1] is 146 µM; in assay [3], 0.203 µM. In the assay with Mus musculus, this compound registered a Protection of 20%. Moreover, the “WLC PRA” value in the assay with Rattus norvegicus [2] was “inactive”.

Turning to `CC(C)CC(C)(CN)CC(=O)O` (stereo not drawn), the CITH entry in the assay on Rattus norvegicus [6] was “inactive”. Besides, the 50% inhibitory concentration (IC50) in assay [1] was found to be 89 µM. This compound registered a Protection in the assay on Mus musculus of 0%. In addition, in the assay on Rattus norvegicus [2], the “WLC PRA” value was “inactive”.

On to `CCC(CN)(CC(=O)O)CC(C)C` (stereo not drawn), for which the IC50 is 60 µM in assay [1] and 8.56 µM in assay [3]. In the assay on Mus musculus, this compound yielded a Protection of 20%. The “WLC PRA” value with Rattus norvegicus [2] was “inactive”.

For `CC(C)C[C@@H](CN)CC(=O)O`, in the assay on Rattus norvegicus [6], the CITH entry was “inactive”. Besides, in assay [1], half-maximal inhibition (IC50) required 355 µM. The compound also returned a Protection with Mus musculus of 0%. Moreover, the “WLC PRA” value with Rattus norvegicus [2] is “inactive”.

Consider `CC(C)C[C@@H](CCN)C(=O)O`, for which the IC50 was greater than 10000 µM in assay [1] and 2.06 µM in assay [3]. The compound further showed a Protection in the assay with Mus musculus of 0%. Also, the “WLC PRA” value in the assay with Rattus norvegicus [2] was “inactive”.

Consider `NCC1(CC(=O)O)CCCCC1` [GABAPENTIN], for which the “WLC PRA” value in the assay on Rattus norvegicus [4] was determined as 60. The CITH with Rattus norvegicus [5] turned out to be 48. Moreover, the IC50 in assay [1] came out at 30 µM; in assay [3], 0.07 µM. The same compound displayed a Protection in the assay with Mus musculus of 100%.

`CC(C)C[C@@H](CC(=O)O)[C@H](C)N`: the CITH result in the assay with Rattus norvegicus [6] is “inactive”. Besides, the IC50 is greater than 10000 µM in assay [1] and 0.039 µM in assay [3]. Moreover, in the assay on Mus musculus, the Protection was 0%. The “WLC PRA” value in the assay with Rattus norvegicus [2] was “inactive”.

With `CCC(CC)CC(CN)CC(=O)O` (stereo not drawn), the CITH entry with Rattus norvegicus [6] was “inactive”. Also, the IC50 was 142 µM in assay [1] and 1.33 µM in assay [3]. For the same compound, the Protection with Mus musculus is given as 0%. In the assay on Rattus norvegicus [2], the “WLC PRA” value is “inactive”.

In the case of `CC(C)C[C@@H](CC(=O)O)[C@@H](C)N`, the CITH entry in the assay with Rattus norvegicus [6] is “inactive”. For the same compound, the IC50 in assay [1] was greater than 100000 µM; in assay [3], 0.48 µM. Further, the Protection in the assay on Mus musculus worked out at 0%. The “WLC PRA” value in the assay on Rattus norvegicus [2] is “inactive”.

Regarding `CC(C)[C@@H](C)[C@H](CN)CC(=O)O`, the “WLC PRA” value in the assay with Rattus norvegicus [4] is listed as 152. This compound also gave a CITH with Rattus norvegicus [5] of 71. Also, the IC50 in assay [1] turned out to be 157 µM; in assay [3], 0.021 µM. For the same compound, in the assay with Mus musculus, the Protection is recorded as 100%.

`CCC[C@@H](CC(=O)O)[C@@H](C)N`: the CITH result in the assay on Rattus norvegicus [6] is “inactive”. Also, the IC50 in assay [1] is greater than 8300 µM; in assay [3], 1.29 µM. Besides, the Protection in the assay on Mus musculus stood at 0%. In the assay on Rattus norvegicus [2], the “WLC PRA” value was “inactive”.

The term IC50 denotes the point on the concentration scale where inhibition reaches its midpoint. Low values mean greater potency in that assay, high ones weaker potency in that assay.
